Reference: patent publication US9974760B2, “Compositions and methods for treating cancer” (Chemo-Enhanced LLC, priority 2011, dated 2018)
Entries after “also recorded” stand apart in the source; their conditions may differ.

Legend:
[1] = tested on: L3.6 pancreatic cancer cells; test: Cell viability / cell death (MTT) in L3.6 pancreatic cancer cells; assay type: cell-based, human; conditions: LY 1 μM, rapamycin 100 nM, U0126 1 μg/ml; 48 hours
Procedure: L3.6 pancreatic cancer cells, cultured either in the basic DMEM medium or with 10% FBS, were treated with the indicated doses of taxol in the presence or absence of C6-ceramide (10 μg/ml) for 48 hours and cell viability was detected by MTT assay (FIGS. 1A-1B). L3.6 cells, cultured either in basic DMEM medium or with 10% FBS, were treated with the indicated dose of C6-ceramide in the presence or absence of taxol (1.5 μg/ml) for 48 hours and cell viability was detected by MTT assay (FIGS. 1C-1D). Mitomycin C (10 μg/ml) was always present in the media to prevent cell proliferation from occurring. The data represents the mean±SD of at least triplicate experiments. *P<0.05 versus group without C6-ceramide presents (FIGS. 1A-1B). **P<0.05 versus group without taxol presents (FIGS. 1C-1D).
(§1) FIGS. 3A-3H show synergistic anti-tumor effects of C6-ceramide and gemcitabine in vivo and in vitro. SCID/Beige/Taconic nude male mice (22-25 g; 6-8 weeks old) were ear tagged and randomized into 4 different groups (Control, Ceramide, gemcitabine, Ceramide+gemcitabine) combining 5 mice each prior to inoculation subcutaneous (s.c.) with 2×10^6 L3.6 cells in a 0.1 ml volume into the internal surface of the right thigh. Treatment was started 4 days after L3.6 cell injection with thrice weekly (3×/wk) intraperitoneal (i.p.) injections of gemcitabine (two doses: 5.0 and 10.0 mg/ml) with or without C6-ceramide (10 mg/ml) for 2 weeks. Mouse survival (FIGS. 3A, 3B, and 3E) and tumor volume (in cm^3; FIGS. 3C and 3D) were recorded (FIG. 3E). Pancreatic cancer cell lines, including L3.6 cells (FIG. 3F), Panc-1 cells (FIG. 3G) and MIA-PaCa2 cells (MIA, FIG. 3H) were cultured in basic DMEM medium and were treated with gemcitabine (Gem, 1 μg/ml). Mitomycin C was always present in the media to prevent cell proliferation from occurring. The data represent the mean±SD of at least triplicate experiments. *P<0.05 versus group without C6-ceramide presents. The experiments were repeated at least three times and similar results were observed.
(§2) Pancreatic cancer cell lines L3.6 cells were left untreated or treated with gemcitabine (Gem, 1 μg/ml) or taxol (1.5 μg/ml) in the presence or absence of C6-ceramide (10 μg/ml) for 2, 4 and 6 hours, AKT/mTORC1 and ERK activation were detected by Western Blot using indicated antibodies (FIGS. 5A and 5C). p-AKT (S473) and p-ERK at 4 hour time intervals for each treatment quantified (FIGS. 5B and 5D). L3.6 cells were pretreated with various inhibitors including PI3K/AKT inhibitor LY 294002 (LY, 1 μM), mTORC1 inhibitor rapamycin (100 nM), MEK/ERK inhibitor U0126 (1 μg/ml) or gemcitabine (1 μg/ml) for 48 hours, cell death was detected 48 hours later (FIG. 5E). The effects of the various inhibitors described above on AKT/mTORC1 and ERK activation were also detected by Western Blots using commercial available antibodies (FIG. 5F). *P<0.05 versus group without C6-ceramide presents. The experiments were repeated at least three times and similar results were observed.
Cell viability was measured by the 3-[4m5-dimethylthylthiazol-2-y]-2.5 diphenyltetrazolium bromide (MTT) method, as described in Cao et al. (2009) Sci. Signal, 2:RA17. Briefly, the cells were collected and seeded in 96-well plate at a density of 2×10^5 cells/cm^2. Different seeding densities were optimized at the beginning of the experiments. After overnight incubation cells were exposed to fresh medium containing indicated reagents at 37° C. After incubation for different time periods, 20 ul of MTT tetrazolium (Sigma, St. Louis, Mo.) salt dissolved in Hank's balanced solution at a concentration of 5 mg/ml was added to each well and incubated in a CO2 incubator for an additional 4 hours. The medium was subsequently aspirated from each well and 150 ul of DMSO (Sigma, St. Louis, Mo.) was added to dissolve formazan crystals and the absorbance of each well was obtained using a Dynatech MR5000 plate reader at a test wavelength of 490 nm with a reference wavelength of 630 nm. […]

[2] = tested on: cancer cells; test: Taxol induced cancer cell death with pathway inhibitors/activators (FIGS. 4A-4D); assay type: cell-based; conditions: added to Taxol
From the text: The molecular mechanism involved in C6-ceramide induced chemosensitization effects was examined by focusing on taxol.
To further confirm the requirement of AMPK activation in this synergistic effect, siRNA directed against AMPK can be used.

[3] = tested on: Panc-1 cells; test: Cell death in Panc-1 pancreatic cancer cells; assay type: cell-based; conditions: Panc-1; gemcitabine 1.5 μg/ml
Procedure: as §1, with “Pancreatic cancer cell lines, including L3.6 cells (FIG. 3F), Panc-1 cells (FIG. 3G) and MIA-PaCa2 cells (MIA, FIG. 3H) were cultured in basic DMEM medium and were treated with gemcitabine (Gem, 1 μg/ml).” left out
(§3) Cell viability was measured by the 3-[4m5-dimethylthylthiazol-2-y]-2.5 diphenyltetrazolium bromide (MTT) method, as described in Cao et al. (2009) Sci. Signal, 2:RA17. Briefly, the cells were collected and seeded in 96-well plate at a density of 2×10^5 cells/cm^2. Different seeding densities were optimized at the beginning of the experiments. […] The medium was subsequently aspirated from each well and 150 ul of DMSO (Sigma, St. Louis, Mo.) was added to dissolve formazan crystals and the absorbance of each well was obtained using a Dynatech MR5000 plate reader at a test wavelength of 490 nm with a reference wavelength of 630 nm.
(§4) The possible combination effect of C6-ceramide on gemcitabine-induced cytotoxicity (in vitro) and regression (in vivo) of the L3.6 pancreatic cancer cell was also tested according to the methods described in Examples 2 and 3. […] A synergistic anti-tumor effect of gemcitabine and C6-ceramide in multiple pancreatic cancer cells in vitro was also determined.

[4] = tested on: MIA-PaCa2 cells; test: Cell death in MIA-PaCa2 pancreatic cancer cells; assay type: cell-based; conditions: MIA cells; gemcitabine 1.5 μg/ml
Procedure: as §1, with “Pancreatic cancer cell lines, including L3.6 cells (FIG. 3F), Panc-1 cells (FIG. 3G) and MIA-PaCa2 cells (MIA, FIG. 3H) were cultured in basic DMEM medium and were treated with gemcitabine (Gem, 1 μg/ml).” left out
as §3, §4

[5] = tested on: L3.6 pancreatic cells; assay type: in vivo
Procedure: Treatment was started 4 days after L3.6 cell injection with thrice weekly (3×/wk) intraperitoneal (i.p.) injections of paclitaxel 3.0 mg/ml with or without C6-ceramide (10 mg/ml) for 2 weeks. Mouse survival (FIGS. 2A and 2C), tumor volume (in cm^3; FIG. 2B), mouse body weight (in grams) were recorded (FIG. 2E). The average rate of tumor development was calculated by total tumor volume dividing by total number of days monitored (FIG. 2C).
as §1, with “SCID/Beige/Taconic” for “FIGS. 3A-3H show synergistic anti-tumor effects of C6-ceramide and gemcitabine in vivo and in vitro. SCID/Beige/Taconic”, “occurring.” for “occurring. The data represent the mean±SD of at least triplicate experiments. *P<0.05 versus group without C6-ceramide presents. The experiments were repeated at least three times and similar results were observed.”
SCID/Beige/Taconic male mice were inoculated with 2×10^6 L3.6 pancreatic cells and treated […] 4 days post tumor implant with thrice weekly (3×/wk) intraperitoneal (I.P.) injections of paclitaxel (taxol) 3.0 mg/ml or gemcitabine (Gem) 10 mg/ml after treatment and were autopsied when near death (as per IRB committee). Mouse survival, tumor volume (in cm^3), and body weight (in grams) were recorded. Average rate of tumor development was calculated by dividing total tumor volume by total number of days monitored.
The possible combination effect of C6-ceramide on gemcitabine-induced cytotoxicity (in vitro) and regression (in vivo) of the L3.6 pancreatic cancer cell was also tested according to the methods described in Examples 2 and 3.

[6] = tested on: AKT/mTORC1; test: Western Blot of AKT/mTORC1 activation in L3.6 cells; assay type: cell-based
Procedure: as §2, with “5E).” for “5E). The effects of the various inhibitors described above on AKT/mTORC1 and ERK activation were also detected by Western Blots using commercial available antibodies (FIG. 5F). *P<0.05 versus group without C6-ceramide presents. The experiments were repeated at least three times and similar results were observed.”
(§5) As described in Cao et al. (2009) Sci. Signal, 2:RA17, aliquots of 30-40 μg of protein from each sample (treated as indicated in the legends) were separated by 10% SDS-polyacrylamide gel electrophoresis (SDS-PAGE) and transferred onto a polyvinylidene difluoride (PVDF) membrane (Millipore, Bedford, Mass.). After blocking with 10% instant nonfat dry milk for 1 hour, membranes were incubated with specific antibodies overnight at 4° C. followed by incubation with secondary antibodies (HRP-conjugated anti-rabbit or anti-mouse IgG at the appropriate dilutions) for 60 minutes to 1 hour at room temperature. Antibody binding was detected with the enhanced chemiluminescence (ECL) detection system (Amersham Biosciences, Piscataway, N.J.).

[7] = tested on: ERK; test: Western Blot of ERK activation in L3.6 cells; assay type: cell-based
Procedure: as §2, with “5E).” for “5E). The effects of the various inhibitors described above on AKT/mTORC1 and ERK activation were also detected by Western Blots using commercial available antibodies (FIG. 5F). *P<0.05 versus group without C6-ceramide presents. The experiments were repeated at least three times and similar results were observed.”
as §5

[8] = tested on: L3.6 pancreatic cancer cells; test: Cell viability / cell death (MTT) in L3.6 pancreatic cancer cells; assay type: cell-based, human; conditions: gemcitabine 1.5 μg/ml

N#CC(=C(N)Sc1ccccc1N)C(C#N)=C(N)Sc1ccccc1N [U0126, 1,4-diamino-2,3-dicyano-1,4-bis [2-aminophenylthio]butadiene]
effect on gemcitabine induced L3.6 cell death [1]: largely enhanced; also recorded: sensitized | effect on taxol induced L3.6 cell death [1]: largely enhanced; also recorded: sensitized

NC(=O)c1ncn([C@@H]2O[C@H](CO)[C@@H](O)[C@H]2O)c1N [AICAR]
effect on Taxol induced cancer cell death [2]: enhance

Nc1ccn([C@@H]2O[C@H](CO)[C@@H](O)C2(F)F)c(=O)n1 [gemcitabine]
cancer cell death [3]: moderate effect | cancer cell death [4]: moderate effect | anti-tumor effect ([5]; gemcitabine 10 mg/kg): moderate anti-tumor effect | survival and tumor growth ([5]; low dose gemcitabine 5 mg/kg): limited effect | AKT/mTORC1 activation / signaling ([6]; L3.6 cells, Western Blot): no effect | PI3K/AKT/mTOR activation ([6]; Taxol alone): no effect | effect on C6-ceramide induced AKT de-phosphorylation or inhibition ([6]; added to C6-ceramide): dramatically enhanced | ERK activation / signaling ([7]; L3.6 cells, Western Blot): no effect | effect on C6-ceramide inhibition of ERK activation ([7]; added to C6-ceramide): enhanced | cancer cell death [8]: moderate effect

CCCCCCCCCCCCCCCCCCOC[C@H](COP(=O)(O)O[C@H]1[C@H](O)[C@@H](O)[C@H](O)C[C@H]1OC)OC [AKT inhibitor II]
Taxol induced cell death in vivo ([5]; inhibitor plus taxol, pancreatic cancer model SCID mice, expected): enhance | effect on Taxol induced cancer cell death [2]: enhance

c1cc(-c2cnn3cc(-c4ccc(OCCN5CCCCC5)cc4)cnc23)ccn1 [Compound C]
effect on Taxol induced cancer cell death [2]: inhibits
